# Measurements taken from PMC12439760 (Bioorganic & medicinal chemistry, 2025).
# Several values for one entry are separate records, joined by “and”; a condition that tells them apart may be missing. Identical values can stand only once.
# Experiments:
# hCB2 receptor = hCB2 receptor (Homo sapiens, UniProt P34972); assay: hCB2 Gαq16-coupled calcium mobilization assay in CHO-K1 cells; type: cell-based; conditions: hCB2 Ca EC50, CHO cells expressing hCB2 and Gαq16, calcium mobilization
# hCB1 receptor = hCB1 receptor (Homo sapiens, UniProt P21554); assay: hCB1 Gαq16-coupled calcium mobilization assay in CHO-K1 cells; type: cell-based; conditions: for EC50: hCB1 Ca EC50, CHO cells expressing hCB1 and Gαq16, calcium mobilization
# Chain of hCB1 receptor (P21554 whole entry): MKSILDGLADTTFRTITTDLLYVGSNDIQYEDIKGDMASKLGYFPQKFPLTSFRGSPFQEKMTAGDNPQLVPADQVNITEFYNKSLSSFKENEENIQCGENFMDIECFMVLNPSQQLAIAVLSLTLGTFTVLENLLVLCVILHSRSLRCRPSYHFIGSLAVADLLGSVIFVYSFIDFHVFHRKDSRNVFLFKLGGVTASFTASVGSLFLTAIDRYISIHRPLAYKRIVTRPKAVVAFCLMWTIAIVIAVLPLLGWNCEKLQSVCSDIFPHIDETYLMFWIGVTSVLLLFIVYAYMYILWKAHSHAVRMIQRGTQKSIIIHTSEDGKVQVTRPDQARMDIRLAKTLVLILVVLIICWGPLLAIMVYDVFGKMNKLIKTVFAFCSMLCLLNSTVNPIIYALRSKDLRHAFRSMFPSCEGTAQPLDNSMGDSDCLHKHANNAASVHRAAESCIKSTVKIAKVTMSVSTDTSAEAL
# Chain of hCB2 receptor (P34972 whole entry): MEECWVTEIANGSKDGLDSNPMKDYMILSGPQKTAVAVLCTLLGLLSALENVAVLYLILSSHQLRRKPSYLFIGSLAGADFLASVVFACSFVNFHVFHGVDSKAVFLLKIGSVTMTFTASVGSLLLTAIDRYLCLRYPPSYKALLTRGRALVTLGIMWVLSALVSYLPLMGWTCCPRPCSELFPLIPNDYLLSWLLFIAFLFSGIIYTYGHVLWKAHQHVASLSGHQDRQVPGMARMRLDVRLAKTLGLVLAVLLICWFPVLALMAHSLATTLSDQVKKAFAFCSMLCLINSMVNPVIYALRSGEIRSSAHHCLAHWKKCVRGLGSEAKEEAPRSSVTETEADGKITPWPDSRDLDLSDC
Compound,EC50 (hCB2 receptor),EC50 (hCB1 receptor),"hCB1 Ca Emax (hCB1 receptor; percentage of the maximum CP55,940 signal, CHO cells expressing hCB1 and Gαq16)"
"CC(C)[C@H](NC(=O)c1nn(Cc2ccc(F)cc2)c2ccccc12)C(=O)O [Compound 5, (2S)-2-({1-[(4-Fluorophenyl)methyl]-1H-indazol-3-yl}formamido)-3-methylbutanoic Acid]",516 ± 19 nM,5550 ± 435 nM,
"CNC(=O)[C@@H](NC(=O)c1nn(Cc2ccc(F)cc2)c2ccccc12)C(C)C [Compound 6, (2S)-2-({1-[(4-Fluorophenyl)methyl]-1H-indazol-3-yl}formamido)-N,3-dimethylbutanamide]",30 ± 1 nM,12 ± 2 nM,
"NC(=O)[C@@H](NC(=O)c1nn(Cc2ccc(F)cc2)c2ccccc12)c1ccccc1 [Compound 7, (2S)-2-({1-[(4-Fluorophenyl)methyl]-1H-indazol-3-yl}formamido)-2-phenylacetamide]",42 ± 9 nM,178 ± 55 nM,
"NC(=O)[C@H](Cc1ccccc1)NC(=O)c1nn(Cc2ccc(F)cc2)c2ccccc12 [Compound 8, (2S)-2-({1-[(4-Fluorophenyl)methyl]-1H-indazol-3-yl}formamido)-3-phenylpropanamide]",59 ± 7 nM,337 ± 33 nM,
"NC(=O)C1(NC(=O)c2nn(Cc3ccc(F)cc3)c3ccccc23)CCCC1 [Compound 9, N-(1-Carbamoylcyclopentyl)-1-[(4-fluorophenyl)methyl]-1H-indazole-3-carboxamide]",63 ± 6 nM,1240 ± 17 nM,
"CC(C)(NC(=O)c1nn(Cc2ccc(F)cc2)c2ccccc12)C(N)=O [Compound 10, 2-({1-[(4-Fluorophenyl)methyl]-1H-indazol-3-yl}formamido)-2-methylpropanamide]",477 ± 142 nM,> 10000 nM,
"CNC(=O)C(C)(C)NC(=O)c1nn(Cc2ccc(F)cc2)c2ccccc12 [Compound 11, 2-({1-[(4-Fluorophenyl)methyl]-1H-indazol-3-yl}formamido)-N,2-dimethylpropanamide]",21 ± 3 nM,182 ± 6 nM,
"CC(C)(NC(=O)c1nn(Cc2ccc(F)cc2)c2ccccc12)C(=O)Nc1cccc(C(N)=O)c1 [Compound 12, 3-[2-({1-[(4-Fluorophenyl)methyl]-1H-indazol-3-yl}formamido)-2-methylpropanamido]benzamide]",360 ± 48 nM,360 ± 88 nM,
"CN(CC(N)=O)C(=O)C(C)(C)NC(=O)c1nn(Cc2ccc(F)cc2)c2ccccc12 [Compound 13, N-(Carbamoylmethyl)-2-({1-[(4-fluorophenyl)methyl]-1H-indazol-3-yl}formamido)-N,2-dimethylpropanamide]",74 ± 19 nM,282 ± 73 nM,
"CC(C)(NC(=O)c1nn(Cc2ccc(F)cc2)c2ccccc12)C(=O)N1CCC[C@@H]1C(N)=O [Compound 15, N-{1-[(2R)-2-Carbamoylpyrrolidin-1-yl]-2-methyl-1-oxopropan-2-yl}-1-[(4-fluorophenyl)methyl]-1H-indazole-3-carboxamide]",> 10000 nM,> 10000 nM,
"NC(=O)[C@@H]1CCCN1C(=O)C1(NC(=O)c2nn(Cc3ccc(F)cc3)c3ccccc23)CC1 [Compound 16, N-{1-[(2S)-2-Carbamoylpyrrolidine-1-carbonyl]cyclopropyl}-1-[(4-fluorophenyl)methyl]-1H-indazole-3-carboxamide]",190 ± 88 nM,168 ± 13 nM,
"CC(C)(CN1CCC[C@H]1C(N)=O)NC(=O)c1nn(Cc2ccc(F)cc2)c2ccccc12 [Compound 17, N-{1-[(2S)-2-Carbamoylpyrrolidin-1-yl]-2-methylpropan-2-yl}-1-[(4-fluorophenyl)methyl]-1H-indazole-3-carboxamide]",101 ± 34 nM,32 ± 15 nM,
"O=C(NCc1ccc(F)cc1)c1nn(Cc2ccc(F)cc2)c2ccccc12 [Compound 18, N,1-Bis[(4-fluorophenyl)methyl]-1H-indazole-3-carboxamide]",168 ± 24 nM,181 ± 20 nM,
"NC(=O)c1ccccc1CNC(=O)c1nn(Cc2ccc(F)cc2)c2ccccc12 [Compound 19, N-[(2-Carbamoylphenyl)methyl]-1-[(4-fluorophenyl)methyl]-1H-indazole-3-carboxamide]",52 ± 22 nM,423 ± 190 nM,
"NC(=O)c1cccc(CNC(=O)c2nn(Cc3ccc(F)cc3)c3ccccc23)c1 [Compound 20, N-[(3-Carbamoylphenyl)methyl]-1-[(4-fluorophenyl)methyl]-1H-indazole-3-carboxamide]",170 nM and 172 nM,38 ± 14 nM,104 ± 6%
"NC(=O)c1ccc(CNC(=O)c2nn(Cc3ccc(F)cc3)c3ccccc23)cc1 [Compound 21, N-[(4-Carbamoylphenyl)methyl]-1-[(4-fluorophenyl)methyl]-1H-indazole-3-carboxamide]",1380 ± 149 nM,> 10000 nM,
"C[C@H](NC(=O)c1nn(Cc2ccc(F)cc2)c2ccccc12)c1cccc(C(N)=O)c1 [Compound 22, N-[(1S)-1-(3-Carbamoylphenyl)ethyl]-1-[(4-fluorophenyl)methyl]-1H-indazole-3-carboxamide]",,26 ± 2 nM,
"C[C@@H](NC(=O)c1nn(Cc2ccc(F)cc2)c2ccccc12)c1cccc(C(N)=O)c1 [Compound 23, N-[(1R)-1-(3-Carbamoylphenyl)ethyl]-1-[(4-fluorophenyl)methyl]-1H-indazole-3-carboxamide]",,433 ± 84 nM,
"CC(=O)Nc1cccc(C(C)(C)NC(=O)c2nn(Cc3ccc(F)cc3)c3ccccc23)c1 [Compound 25, N-[2-(3-Acetamidophenyl)propan-2-yl]-1-[(4-fluorophenyl)methyl]-1H-indazole-3-carboxamide]",68 ± 1 nM,,
"CC(C)(NC(=O)c1nn(Cc2ccc(F)cc2)c2ccccc12)c1cccc(NC(N)=O)c1 [Compound 26, N-{2-[3-(Carbamoylamino)phenyl]propan-2-yl}-1-[(4-fluorophenyl)methyl]-1H-indazole-3-carboxamide]",,590 ± 152 nM,
"NC(=O)c1cccc(C2(NC(=O)c3nn(Cc4ccc(F)cc4)c4ccccc34)CC2)c1 [Compound 27, N-[1-(3-Carbamoylphenyl)cyclopropyl]-1-[(4-fluorophenyl)methyl]-1H-indazole-3-carboxamide]",96 ± 6 nM,2740 ± 939 nM,
"O=C(NCC1CCCCC1)c1nn(Cc2ccc(F)cc2)c2ccccc12 [Compound 28, N-(Cyclohexylmethyl)-1-[(4-fluorophenyl)methyl]-1H-indazole-3-carboxamide]",28 ± 8 nM,17 ± 1 nM,
"NC(=O)N1CCC[C@@H](CNC(=O)c2nn(Cc3ccc(F)cc3)c3ccccc23)C1 [Compound 29, N-{[(3S)-1-Carbamoylpiperidin-3-yl]methyl}-1-[(4-fluorophenyl)methyl]-1H-indazole-3-carboxamide]",178 ± 45 nM,950 ± 108 nM,
"NC(=O)N1CCC[C@H](CNC(=O)c2nn(Cc3ccc(F)cc3)c3ccccc23)C1 [Compound 30, N-{[(3R)-1-Carbamoylpiperidin-3-yl]methyl}-1-[(4-fluorophenyl)methyl]-1H-indazole-3-carboxamide]",,671 ± 161 nM,
"NC(=O)N1CCC[C@@H](NC(=O)c2nn(Cc3ccc(F)cc3)c3ccccc23)C1 [Compound 39, N-[(3R)-1-Carbamoylpiperidin-3-yl]-1-[(4-fluorophenyl)methyl]-1H-indazole-3-carboxamide]",207 ± 66 nM,,
"CC(c1ccc(F)cc1)n1nc(C(=O)NC(C)(C)c2cccc(C(N)=O)c2)c2ccccc21 (stereo not shown) [Compound 47, N-[2-(3-Carbamoylphenyl)propan-2-yl]-1-[1-(4-fluorophenyl)ethyl]-1H-indazole-3-carboxamide]",,243 ± 37 nM,
